Data set [1] relates to Ehrlich carcinoma. Description: Antineoplastic effect on Ehrlich carcinoma in mice (survival, T/C percent). The format is in vivo, male ICR mouse. The following applies: in the abdomen once a day for 7 days. The method, then:
Antineoplastic effect on Ehrlich carcinoma:
(§1) About 10^6/0.2 ml of Ehrlich carcinoma cells were placed in an abdomen of each male ICR mouse of 5 weeks old. On the next day the administration of the test sample in the abdomen was started. The test sample was given once a day for 7 days. For an untreated group, a physiological saline solution was given in the same manner as above. […] The T/C percent (T/C x 100) was determined from the average survival periods (days) of the treated group and control group. Further, 50 % lethal dose (LD50) was determined from the number of the mice which died of toxicity of the test samples administered.

Data set [2] in a line: 50 % lethal dose from toxic deaths in the Ehrlich carcinoma experiment. The format is in vivo, male ICR mouse. The following applies: mice bearing Ehrlich carcinoma, in the abdomen once a day for 7 days; for LD50: 43200 min. As to the method: as §1
For data set [3], the system named is Salmonella typhimurium TA-98. Put plainly: Antimutagenic properties by Ames method with benzo[a]pyrene as mutagen. The format is cell-based. The following applies: for Number of colonies: B(a)P, S-9 mix; for inhibition rate: inhibition of the mutagenic effect of B(a)P. The method, then: The experiment was carried out by Ames method using Salmonella typhimurium TA-98 (hereinafter referred to as TA-98) as the test microorganism and benzo[a]pyrene (hereinafter referred to as B(a)P) as the mutagen.
0.1 ml of a solution containing […] of B(a)P and a suitable amount of a compound of the present invention was added to 0.5 ml of S-9 mix and 0.1 ml of a TA-98 suspension. The mixture was incubated at 37°C for 20 min. 2 ml of soft agar was added thereto, mixed well and then spread evenly on a glucose minimum agar medium plate. After the incubation at 37°C for 48 h, the number of colonies formed by the back mutation was counted.
The number of the colonies formed when neither B(a)P nor the compound of the present invention was used was employed as the background.
The antimutagenic properties was shown as the rate of inhibition of the mutagenic effect according to the following formula: [formula]

The subject of data set [4] is Hela S3 cells. Put plainly: Inhibition of proliferation of incubated Hela S3 cells. The following applies: cells counted 3 days after addition of sample. The format is cell-based. The method, then:
Effect of inhibiting the proliferation of incubated Hela S3 cells:
Hela S3 cells were placed on a culture medium (NEM containing 10 % of calf serum in a plastic dish. After 2 days, an organoselenium compound was added thereto. After containing the culture for additional 3 days, the number of the cells was counted. The proliferation inhibition rate was calculated according to the following formula: Inhibition rate (%) = 100 x (B-A) / (B-C) in which A is the final number of the cells counted on the third day after addition of the test sample, B is the final number of the cells in a sample- free control and C is the number of the cells counted immediately after the addition of the test sample. The value of IC50 (50 % inhibitory concentration) was determined from a graph showing the relationship between the concentration of the sample and the inhibition rate.

Compound `O=[Se]1OCCO1` [Compound 14, 1,2-ethanediol selenite] showed a response vs control in vivo at 2 mg/kg in data set [1] (Mus musculus, Ehrlich, ip, 720 h, dose 2.0 mg/kg, observation period 60 days) of 193%. Besides, the response vs control in vivo at 4 mg/kg in data set [1] (Mus musculus, Ehrlich, ip, 720 h, dose 4.0 mg/kg, observation period 60 days) amounted to 266%. Besides, the response vs control in vivo at 8 mg/kg in data set [1] (Mus musculus, Ehrlich, ip, 720 h, dose 8.0 mg/kg, observation period 60 days) was found to be 108%. Moreover, the response vs control in vivo at 16 mg/kg in data set [1] (Mus musculus, Ehrlich, ip, 720 h, dose […], observation period 60 days) stood at 34%. In data set [2] (mouse, in vivo, ip), this compound showed an LD50 at 720 h of 4 to 8 mg/kg. Further, the Number of colonies is 231 in data set [3] (dose 0.5 µg/plate); 235 in data set [3] (dose 1 µg/plate); 156 in data set [3] (dose 5 µg/plate); 145 in data set [3] (dose 10 µg/plate); 76 in data set [3] (dose 50 µg/plate); 62 in data set [3] (dose 100 µg/plate). In addition, the Number of colonies in data set [3] (dose 500 µg/plate) is listed as 32. Besides, the inhibition rate in data set [3] (dose 0.5 µg/plate) is reported as 23.1%; in data set [3] (dose 1 µg/plate), 21.6%; in data set [3] (dose 5 µg/plate), 51.1%; in data set [3] (dose 10 µg/plate), 55.2%; in data set [3] (dose 50 µg/plate), 81.0%; in data set [3] (dose 100 µg/plate), 86.2%. The same compound had an inhibition rate in data set [3] (dose 500 µg/plate) of 97.4%.

What is called IC50 is the concentration needed to halve the response being measured. Lower therefore signals greater potency. Compound `O=[Se](Cl)Cl.c1ccncc1` [Selenium oxychloride·pyridine (1:1) complex] registered an IC50 in data set [4] of 0.59 µg/mL.

As for “selenium oxychloride·pyridine complex [Compound 4]”, the “Antineoplastic effect (T/C percent)” value was 178.6% in data set [1] (dose 2.0 mg/kg, observation period 30 days); 218% in data set [1] (dose 2.0 mg/kg, observation period 60 days); 188.1% in data set [1] (dose 4.0 mg/kg, observation period 30 days); 270% in data set [1] (dose 4.0 mg/kg, observation period 60 days); 200.8% in data set [1] (dose 8.0 mg/kg, observation period 30 days); 297% in data set [1] (dose 8.0 mg/kg, observation period 60 days). For the same compound, in data set [2], the LD50 is listed as 8 - 16 mg/kg/day x7. For the same compound, the Number of colonies in data set [3] (dose 0.5 µg/plate) amounted to 213; in data set [3] (dose 1 µg/plate), 192; in data set [3] (dose 5 µg/plate), 180; in data set [3] (dose 10 µg/plate), 144; in data set [3] (dose 50 µg/plate), 93; in data set [3] (dose 100 µg/plate), 87. This compound also registered a Number of colonies in data set [3] (dose 500 µg/plate) of 41. Moreover, the inhibition rate in data set [3] (dose 0.5 µg/plate) worked out at 23.0%; in data set [3] (dose 1 µg/plate) it was 32.8%; in data set [3] (dose 5 µg/plate), 37.7%; in data set [3] (dose 10 µg/plate), 52.5%; in data set [3] (dose 50 µg/plate), 73.4%; in data set [3] (dose 100 µg/plate) it was 75.8%. In data set [3] (dose 500 µg/plate), the inhibition rate is 94.7%.

As for selenium oxychloride [Compound 3], the “Antineoplastic effect (T/C percent)” value was 141% in data set [1] (dose 0.75 mg/kg, observation period 60 days); 222% in data set [1] (dose 1.5 mg/kg, observation period 60 days); 168% in data set [1] (dose 3.0 mg/kg, observation period 60 days); 105% in data set [1] (dose 6.0 mg/kg, observation period 60 days). Also, in data set [2], the LD50 amounted to 6 mg/kg/day x7. The Number of colonies in data set [3] (dose 0.5 µg/plate) turned out to be 205; in data set [3] (dose 1 µg/plate) it was 230; in data set [3] (dose 5 µg/plate), 154; in data set [3] (dose 10 µg/plate) it was 132; in data set [3] (dose 50 µg/plate), 72; in data set [3] (dose 100 µg/plate), 70. Besides, the Number of colonies in data set [3] (dose 500 µg/plate) amounted to 27. Besides, the inhibition rate in data set [3] (dose 0.5 µg/plate) stood at 30.3%; in data set [3] (dose 1 µg/plate), 22.0%; in data set [3] (dose 5 µg/plate), 52.0%; in data set [3] (dose 10 µg/plate), 60.6%; in data set [3] (dose 50 µg/plate) it was 84.3%; in data set [3] (dose 100 µg/plate), 85.6%. This compound also had an inhibition rate in data set [3] (dose 500 µg/plate) of 100%.
